Results reported in US10124033B2, “Peptides and methods of use” (BAXALTA INCORPORATED, priority 2014, dated 2018).
Non-standard residues stand in square brackets, D forms with d. Residues, ends and D or L forms follow the SMILES beside them. Tle = CC(C)(C)[C@H](N)C(=O)O

Experiments:
[1] = biological target: T1, Protein S/APC cofactor activity (Homo sapiens, UniProt P07225); assay: CAT assay: Protein S/APC-dependent thrombin generation in FVIII-inhibited plasma; type: biochemical; conditions: Protein S-depleted plasma supplemented with APC and Protein S, FVIII-inhibited
T1 construct: host or cells: plasma
T1 sequence (P07225 41-676 limits assumed): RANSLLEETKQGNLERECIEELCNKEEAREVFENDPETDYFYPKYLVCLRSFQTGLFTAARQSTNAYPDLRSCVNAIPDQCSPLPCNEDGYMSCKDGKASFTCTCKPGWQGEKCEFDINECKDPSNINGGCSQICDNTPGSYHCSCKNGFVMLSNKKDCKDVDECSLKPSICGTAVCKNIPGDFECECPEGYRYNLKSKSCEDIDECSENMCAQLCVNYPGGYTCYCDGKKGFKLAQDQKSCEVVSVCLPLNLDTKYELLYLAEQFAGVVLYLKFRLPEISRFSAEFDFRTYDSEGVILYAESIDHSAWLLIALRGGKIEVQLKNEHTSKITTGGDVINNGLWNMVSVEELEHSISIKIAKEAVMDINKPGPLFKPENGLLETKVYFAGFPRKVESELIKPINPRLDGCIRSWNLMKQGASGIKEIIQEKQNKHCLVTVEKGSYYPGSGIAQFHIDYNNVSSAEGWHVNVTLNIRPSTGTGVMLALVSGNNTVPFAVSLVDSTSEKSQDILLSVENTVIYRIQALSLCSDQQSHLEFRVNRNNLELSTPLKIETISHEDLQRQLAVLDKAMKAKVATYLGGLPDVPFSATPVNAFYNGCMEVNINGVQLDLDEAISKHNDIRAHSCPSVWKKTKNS
Protocol: Peptides also were tested for improvement of Protein S/APC-dependent thrombin generation in hemophilic plasma using a CAT assay. Protein S enhances the anticoagulation of APC in plasma. The CAT assay quantifies the effect of Protein S on APC-mediated thrombin generation initiated via the extrinsic coagulation pathway (Nicolaes, Blood Coagul. Fibrinolysis, 8:28 (1997)). APC (35 nM) and Protein S (25 nM) was added to Protein 5-depleted plasma, and plasma samples were incubated with high titer heat inactivated anti-human FVIII plasma raised in goat (4490 BU/ml; Baxter BioScience, Vienna, Austria; 50 BU/ml final plasma concentration). Thrombin formation in plasma was followed by calibrated automated thrombography (CAT) in a Fluoroskan Ascent® reader (Thermo Labsystems, Helsinki, Finland) and quantified via the thrombin peak-height. Thrombin generation was determined at high tissue factor (TF) concentration in the absence and in the presence of APC at a concentration that reduces the peak height to ˜20%. The inhibitory effect of peptides described herein on the APC cofactor activity of Protein S (PS) in plasma was measured in FVIII-inhibited pooled normal plasma supplemented with APC. Complete (100%) Protein S/APC inhibition is the height of the thrombin peak without addition of APC. Lack of (0%) PS/APC inhibition correlates to the thrombin peak-height value with a certain amount of APC. Peptides were ranked by their normalized values in comparison to the mean of wild-type controls including SD at two defined peptide concentrations (EC50 and EC90).
Exemplary conditions for the CAT assay are as follows. Protein S-depleted plasma was supplemented with 35 nM APC and […]. Stock APC was diluted with 10 pM TF and 15 μM PL. Lyophilized peptides were dissolved in 100% DMSO to a 5 mM stock concentration and further diluted with HNABSA5-buffer+0.1% Tween80. […] In a 96 well Immulon 2HB (transparent), U-bottom (ThermoElectron) plate was mixed 80 μl plasma (+CTI+Z994-5), 10 μl peptide dilution, and 10 μl APC-TF-PL-MIX or Calibrator. Thrombin generation was initiated by dispensing 20 μL of FluCa reagent containing fluorogenic substrate and HEPES-buffered CaCl2 (100 mM) into each well. Fluorescence intensity was recorded at 37° C. using the Fluoroskan Ascent® reader (filters 390 nm excitation and 460 nm emission). The parameters of the resulting thrombin generation curves were calculated using the Thrombinoscope™ software (Thrombinoscope) and thrombin calibrator to correct for inner filter and substrate consumption effects (Hemker, Pathophysiol Haemost Thromb, 33: 415 (2003)).

[2] = biological target: T2, Protein S (Homo sapiens, UniProt P07225); assay: competition (IC50) ELISA with biotinylated tracer peptide JBS0684; type: binding; conditions: competition ELISA, tracer JBS0684; re-synthesized peptides
T2 sequence (P07225 41-676 limits assumed): T1 sequence (P07225 41-676 limits assumed)
Protocol: The new peptide candidates were synthesized (purity >60%) and screened for affinity in a competitive binding assay (ELISA IC50) and activity in a thrombin generation assay (CAT). The competition (IC50) ELISA was performed using biotinylated tracer peptide JBS0684 to compete for Protein S-binding with candidate peptides. Peptides that compete with the tracer bind the same region of Protein S as the tracer (and each other). Ninety-six well PolySorp plates (Nunc) were coated with 3 μg/mL Protein S in coating buffer (15 mM Na2CO3, 35 mM NaHCO3, pH 9.6) over night. Plates were washed three times with wash buffer (HNaT: 175 mM NaCl, 25 mM HEPES, 5 mM CaCl2, 0.1% Tween 80, pH 7.35), and blocked with 100 μl 2% yeast extract in HNaT for at least 1 hour. Plates were then washed three times with HNaT. JBS0684 was applied at a concentration corresponding to the EC90 value determined in the binding ELISA. A competitor stock solution of peptide (10 mM) was diluted 1/33.3 in HNaT without HSA, and a serial ⅓ dilution was prepared with HNaT with 3% DMSO. The dilution was further diluted with the biotinylated tracer peptide in a ratio of 1:6 (20 μl competitor dilution and 100 μl tracer peptide). The mixture of competitor and tracer peptide was applied to the Protein S-coated microtiter plate and incubated for 1.5 hours. The plates were washed three times with HNaT. Peptide-Protein S binding was detected by applying HRP-conjugated streptavidin to the microtiter plate, incubating the mixture for one hour, washing the plate three times with HNaT, applying TMB (3,3′5,5′-Tetramethylbenzidin), and detecting the subsequent chromogenic conversion of TMB by HRP. IC50 measurements of peptides are provided herein (see, e.g., Table 3).

[3] = biological target: T2, Protein S; assay: LANCE IC50 assay (competition TR-FRET) with tracer JBS0684; type: binding; conditions: Table 4, multiple substitutions in JBS2572; read-out: LANCE IC50
Protocol: Peptides also were characterized in a competition, homogenous europium-based TR-FRET assay (LANCE IC50 assay) using JBS0684 as a tracer (i.e., competitor for Protein S binding). The following reagents were mixed together in a Perkin-Elmer ProxiPlate MTP well (indicated concentration is the final concentration): Eu-labeled Protein S (10 nM), Ulight™-labeled Streptavidin (100 nM), tracer (JBS0684 (300 nM)), and peptide (titrated in three-fold dilution steps). The final volume was 50 μl/well. The reaction mix was incubated for 1 hour at room temperature, then the fluorescence emission at 665 nm was recorded on a multi-mode reader (SpectraMax® M5, Molecular Devices) using the following instrument settings: Ex 340 nm, Em 665 nm, delay 50 μsec, integration 100 μsec, reads 100. Binding of tracer peptides to soluble europium-labeled Protein S was detected by Streptavidin labeled with an acceptor fluorophor (ULight™). Inhibition of tracer-binding to Protein S by a non-biotinylated peptide results in a decrease of TR-FRET between the Eu-labeled Protein S and ULight™-labeled Streptavidin. IC50 values were obtained from peptide titration curves at constant tracer concentration using non-linear regression of the fluorescence emission signals at 665 nm.

Structure (SMILES)	EC50 [1]	IC50 [2]	IC50 [3]
CC(=O)N[C@H](C(=O)NCC(=O)N[C@@H](Cc1c[nH]cn1)C(=O)N[C@H](C(=O)N[C@@H](CO)C(=O)N[C@@H](C)C(=O)NCC(=O)N[C@@H](Cc1c[nH]c2ccccc12)C(=O)N[C@@H](Cc1ccc(O)cc1)C(=O)N[C@@H](CC(=O)O)C(=O)N[C@@H](Cc1ccc(O)cc1)C(=O)N[C@@H](CC(N)=O)C(=O)N[C@@H](C)C(=O)N[C@@H](CC(=O)O)C(=O)N[C@@H](Cc1c[nH]cn1)C(=O)N[C@@H](Cc1ccc(O)cc1)C(=O)N[C@@H](CCCNC(=N)N)C(=O)N[C@@H](CCC(=O)O)C(=O)N[C@@H](Cc1ccccc1)C(=O)N[C@H](C(N)=O)[C@@H](C)O)C(C)C)[C@@H](C)O [JBS2526] (Ac-TGHVSAGWYDYNADHYREFT-NH2)	19 nM	3.6 nM	
CC(=O)N[C@H](C(=O)NCC(=O)N[C@@H](Cc1c[nH]cn1)C(=O)N[C@H](C(=O)N[C@@H](CO)C(=O)N[C@@H](C)C(=O)NCC(=O)N[C@@H](Cc1c[nH]c2ccccc12)C(=O)N[C@@H](Cc1ccc(O)cc1)C(=O)N[C@@H](CC(=O)O)C(=O)N[C@@H](Cc1ccc(O)cc1)C(=O)N[C@@H](CC(N)=O)C(=O)N[C@@H](Cc1ccccc1)C(=O)N[C@@H](CC(=O)O)C(=O)N[C@@H](CC(=O)O)C(=O)N[C@@H](Cc1ccc(O)cc1)C(=O)N[C@@H](CCCNC(=N)N)C(=O)N[C@@H](CCC(=O)O)C(=O)N[C@@H](Cc1ccccc1)C(=O)N[C@H](C(N)=O)[C@@H](C)O)C(C)C)[C@@H](C)O [JBS2546] (Ac-TGHVSAGWYDYNFDDYREFT-NH2)	30 nM	6.8 nM	
CC(=O)N[C@H](C(=O)NCC(=O)N[C@@H](Cc1c[nH]cn1)C(=O)N[C@H](C(=O)N[C@@H](CO)C(=O)N[C@@H](C)C(=O)NCC(=O)N[C@@H](Cc1c[nH]c2ccccc12)C(=O)N[C@@H](Cc1ccc(O)cc1)C(=O)N[C@@H](CC(=O)O)C(=O)N[C@@H](Cc1ccc(O)cc1)C(=O)N[C@@H](CC(N)=O)C(=O)N[C@@H](Cc1ccccc1)C(=O)N[C@@H](CC(=O)O)C(=O)N[C@@H](CC(C)C)C(=O)N[C@@H](Cc1ccc(O)cc1)C(=O)N[C@@H](CCCNC(=N)N)C(=O)N[C@@H](CCC(=O)O)C(=O)N[C@@H](Cc1ccccc1)C(=O)N[C@H](C(N)=O)[C@@H](C)O)C(C)C)[C@@H](C)O [JBS2584] (Ac-TGHVSAGWYDYNFDLYREFT-NH2)	9 nM	2.7 nM	

Further lines, results first:

EC50 [1]	IC50 [2]	IC50 [3]	Structure (SMILES)
24 nM			CC(=O)N[C@H](C(=O)NCC(=O)N[C@@H](Cc1c[nH]cn1)C(=O)N[C@H](C(=O)N[C@@H](CO)C(=O)N[C@@H](C)C(=O)NCC(=O)N[C@@H](Cc1c[nH]c2ccccc12)C(=O)N[C@@H](Cc1ccc(O)cc1)C(=O)N[C@@H](CC(=O)O)C(=O)N[C@@H](Cc1ccc(O)cc1)C(=O)N[C@@H](CC(N)=O)C(=O)N[C@@H](Cc1ccccc1)C(=O)N[C@@H](CC(=O)O)C(=O)N[C@@H](Cc1c[nH]cn1)C(=O)N[C@@H](Cc1ccc(O)cc1)C(=O)N[C@@H](CCCNC(=N)N)C(=O)N[C@@H](CCC(=O)O)C(=O)N[C@@H](Cc1ccccc1)C(=O)N[C@H](C(N)=O)[C@@H](C)O)C(C)C)[C@@H](C)O [JBS2512] (Ac-TGHVSAGWYDYNFDHYREFT-NH2)
24 nM	5.5 nM		CC(=O)NCC(=O)NCC(=O)N[C@@H](Cc1c[nH]cn1)C(=O)N[C@H](C(=O)N[C@@H](CO)C(=O)N[C@@H](C)C(=O)NCC(=O)N[C@@H](Cc1c[nH]c2ccccc12)C(=O)N[C@@H](Cc1ccc(O)cc1)C(=O)N[C@@H](CC(=O)O)C(=O)N[C@@H](Cc1ccc(O)cc1)C(=O)N[C@@H](CC(N)=O)C(=O)N[C@@H](Cc1ccccc1)C(=O)N[C@@H](CC(=O)O)C(=O)N[C@@H](Cc1c[nH]cn1)C(=O)N[C@@H](Cc1ccc(O)cc1)C(=O)N[C@@H](CCCNC(=N)N)C(=O)N[C@@H](CCC(=O)O)C(=O)N[C@@H](Cc1ccccc1)C(=O)N[C@H](C(N)=O)[C@@H](C)O)C(C)C [JBS2552] (Ac-GGHVSAGWYDYNFDHYREFT-NH2)
19 nM	2.6 nM		CC(=O)N[C@H](C(=O)NCC(=O)N[C@@H](Cc1c[nH]cn1)C(=O)N[C@H](C(=O)N[C@@H](CO)C(=O)N[C@@H](C)C(=O)NCC(=O)N[C@@H](Cc1c[nH]c2ccccc12)C(=O)N[C@@H](Cc1ccc(O)cc1)C(=O)N[C@@H](CC(=O)O)C(=O)N[C@@H](Cc1ccc(O)cc1)C(=O)N[C@@H](CC(N)=O)C(=O)N[C@@H](Cc1ccccc1)C(=O)N[C@@H](CC(=O)O)C(=O)N[C@@H](Cc1c[nH]cn1)C(=O)N[C@@H](Cc1ccc(O)cc1)C(=O)N[C@@H](CC(C)C)C(=O)N[C@@H](CCC(=O)O)C(=O)N[C@@H](Cc1ccccc1)C(=O)N[C@H](C(N)=O)[C@@H](C)O)C(C)C)[C@@H](C)O [JBS2586] (Ac-TGHVSAGWYDYNFDHYLEFT-NH2)
		1.6 nM	CC(=O)N[C@H](C(=O)NCC(=O)N[C@@H](CC(C)C)C(=O)N[C@H](C(=O)N[C@@H](CO)C(=O)N[C@@H](C)C(=O)NCC(=O)N[C@@H](Cc1c[nH]c2ccccc12)C(=O)N[C@@H](Cc1ccc(O)cc1)C(=O)N[C@@H](CC(=O)O)C(=O)N[C@@H](Cc1ccc(O)cc1)C(=O)N[C@@H](CC(N)=O)C(=O)N[C@@H](Cc1ccccc1)C(=O)N[C@@H](CC(=O)O)C(=O)N[C@H](C(=O)N[C@@H](Cc1ccc(O)cc1)C(=O)N[C@@H](CCCNC(=N)N)C(=O)N[C@@H](CCC(=O)O)C(=O)N[C@@H](Cc1ccccc1)C(=O)N[C@H](C(N)=O)[C@@H](C)O)[C@@H](C)O)C(C)(C)C)[C@@H](C)O [JBS3202, Ac-TGL-Tle-SAGWYDYNFDTYREFT-NH2] (Ac-TGL[Tle]SAGWYDYNFDTYREFT-NH2)
